Key:
DYRK1A kinase = DYRK1A kinase (Homo sapiens, UniProt Q13627); assay: DYRK1A kinase activity (Ser/Thr 18 peptide Z-lyte FRET assay); type: biochemical; conditions: recombinant DYRK1A, 30 μM ATP, one hour at room temperature;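 further: kinase activity read as coumarin/fluorescein emission ratio after development step, with unphosphorylated and phosphorylated peptide forms setting 0% and 100% controls, values from dose-response curves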
GSK3β kinase = GSK3β kinase (Homo sapiens, UniProt P49841); assay: GSK3β kinase activity (Ser/Thr 09 peptide Z-lyte FRET assay); type: biochemical; conditions: recombinant kinase, 46 μM ATP, one hour at room temperature; read-out: EC50
Sequence of GSK3β kinase (P49841 whole entry): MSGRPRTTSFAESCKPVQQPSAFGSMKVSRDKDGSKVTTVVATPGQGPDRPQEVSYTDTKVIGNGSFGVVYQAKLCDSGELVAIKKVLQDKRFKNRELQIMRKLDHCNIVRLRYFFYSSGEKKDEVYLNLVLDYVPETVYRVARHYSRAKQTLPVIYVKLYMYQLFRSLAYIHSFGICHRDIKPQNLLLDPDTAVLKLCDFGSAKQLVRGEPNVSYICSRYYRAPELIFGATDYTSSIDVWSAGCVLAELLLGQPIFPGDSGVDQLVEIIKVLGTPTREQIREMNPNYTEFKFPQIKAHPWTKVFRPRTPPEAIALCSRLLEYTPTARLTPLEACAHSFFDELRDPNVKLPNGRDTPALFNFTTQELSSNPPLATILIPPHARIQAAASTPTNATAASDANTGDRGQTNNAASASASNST

[1] = system: Tau phosphorylation at Ser396 (pSer396); assay: Tau phosphorylation at Ser396 (pSer396) in SH-SY5Y cells, ELISA / western blot; type: cell-based, human; conditions: Homo sapiens; SH-SY5Y cells, overnight (16-18 h); read-out: pSer396 Tau EC50;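 further: decrease in pSer396 Tau measured in lysates of treated cells by colorimetric ELISA or chemiluminescent western blot, same pSer396 antibody for both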
Experimental: Two days before treatment, cells were seeded onto 96 well plates at 5×10^4 cells/well.
The above synthesized compounds were screened using the cell assay procedure to assess decrease Tau phosphorylation at Ser396 (pSer396) described below.
Cells were lysed with RIPA buffer complemented with phosphatase and protease inhibitors then lysates were spun down at 12,000 g for 10 min to remove any cellular debris.

[2] = system: Tau phosphorylation at Threonine 212 (pT212Tau); assay: Tau phosphorylation at Threonine 212 (pT212Tau) in Dyrk1a- and MAPT-overexpressing HEK293T cells, sandwich ELISA; type: cell-based; conditions: Homo sapiens, HEK-293T, overnight (16-18 hours), read-out: Thr212 EC50
Experimental: HEK293T cells (transfectable human embryonic kidney cells) were cultured in DMEM medium supplemented with 10% FBS and 1% penicillin/streptomycin.
HEK293T cells were transiently transfected to overexpress Dyrk1a and microtubule-associated protein Tau (MAPT) genes. Specifically, Dyrk1a and MAPT expression vectors were obtained from OriGene (10 μg of each, catalog numbers SC314641 and RC216166, respectively). A MaxiPrep for each vector was ordered and received from GeneWiz, yielding 874.5 μg (resuspended at […]) of the Dyrk1a expression vector, and 898 μg (resuspended at […]) of MAPT.
HEK293T cells were seeded at 1.0×10^7 cells in 10 mL per T-75 flask. […] One T-75 flask was designated as a no-vector negative control for pT212Tau signal.
After 4-6 hours of incubation in transfection reagents, transiently double transfected HEK293T cells were dissociated by treatment with trypsin EDTA and seeded at 1.0×10^5 cells in 100 μL per well in 96-well plates. No-vector negative controls were seeded in separate 96-well plates to avoid the risk of the negative control cells picking up the overexpression during incubation. At the time of seeding, DMSO-resuspended Samumed compounds were dispensed to eight wells as a serial dilution from 10 μM to 4.6 nM final concentration in medium, or at 0.12 μM to 0.05 nM with particularly potent compounds. Cells were exposed to the representative compounds overnight (16-18 hours) in a 37° C. incubator.
96-Well flat-bottom plates were coated with 100 μL per well anti-HT7 capture antibody (ThermoFisher, MN1000) diluted 1:300 in 1×PBS at 4° C. overnight, with shaking at 500 rpm. After overnight capture antibody incubation, coated plates were washed four times with 200 μL per well of 1×PBS-0.05% Tween-20, and blocked for 1 hour with 200 μL per well of 1×PBS with 2% BSA. After 1 hour of blocking, plates were washed four times with 200 μL per well of 1×PBS-0.05% Tween-20, prior to sample loading.
Wells of compound-treated cells were visually checked for cell death before being washed with 200 μL per well of 1×DPBS supplemented with phosphatase inhibitor diluted to 1×. Cells were then lysed with 100 μL 1×RIPA buffer supplemented with phosphatase and protease inhibitors (each diluted to a final 1×). Cells were shaken at 500 rpm, 4° C. for 20 minutes prior to further lysis (via manual scraping) and transfer to 96-well V-bottom collection plates (Corning, 3894). V-bottom plates were centrifuged at 4000 rpm, 4° C., for 15 minutes, and 100 μL of lysate supernatant from each well was directly tested for pT212Tau signal by sandwich ELISA.
Specifically, lysates were directly transferred to the coated and blocked ELISA plates for 2 hours before plates were washed four times with 200 μL per well of 1×PBS-0.05% Tween-20 and probed with 100 μL per well of anti-pT212Tau antibody (ThermoFisher, 44-740G) diluted 1:200 in 1×PBS for 2 hours. Plates were washed four times with 200 μL per well of 1×PBS-0.05% Tween-20 and probed with 100 μL per well of anti-rabbit/HRP conjugate (Cell Signaling Technology, 7074S) diluted 1:600 in 1×PBS for 1 hour. Plates were washed four times with 200 μL per well of 1×PBS-0.05% Tween-20 before 100 μL per well of TMB substrate solution (ThermoFisher, N301) was added. When colour development was observed, 100 μL per well of stop solution (ThermoFisher, N600) was added, and colorimetric detection of pT212Tau signal was read at 450 nm with the Cytation 3 Cell Imaging Multi-Mode Reader (BioTek). The signal was used to plot, draw the curves fitting, and determine the EC50 values in GraphPad Prism for tested representative compounds.

[3] = system: secreted cytokines TNFα, IL-6 and KC-GRO; assay: Secreted cytokines in Lipopolysaccharide-stimulated BV-2 cells (Table 9 does not say which cytokine); type: cell-based, mouse; conditions: Mus musculus, BV-2, 5 h; read-out: EC50
[4] = system: SW480 colon carcinoma cells; assay: Cell viability assay (CellTiter-Glo); conditions: Homo sapiens; for EC50: SW480, 96 h; for inhibition at 10 µM: SW480, read-out: percent inhibition at 10 μM
[5] = system: Wnt-responsive Sp5-Luc reporter in SW480 colon carcinoma cells; assay: Screening assay for Wnt activity (Sp5-Luc reporter gene assay); conditions: Homo sapiens; for EC50: SW480; for inhibition at 10 µM: SW480, read-out: percent inhibition at 10 μM
IL-6 = IL-6 inhibition in LPS-stimulated human peripheral blood mononuclear cells (HTRF); conditions: Homo sapiens, PBMC; for EC50: 22 h; for inhibition at 10 µM: read-out: percentage in parentheses after EC50 >10
Experimental: Each compound was dissolved in DMSO (Catalog # D8418-100 ml, Sigma-Aldrich, St. Louis, Mo.) as a 10 mM stock and used to prepare compound source plates. […] After 22 hour incubation, a mixture of anti-IL6 XL665 and anti-IL-6 Cryptate diluted in reconstitution buffer (Catalog #62IL6PEC, Cisbio Inc., Bedford, Mass.) was added to each well. […] All samples were processed in duplicate. […] EC50 was determined using software generated by Dotmatics Limited (Windhill Bishops Stortford Herts, UK) using the Levenberg-Marquardt 4 parameter fitting procedure with finite different gradients.

[6] = system: α-smooth muscle actin (aSMA) positive LL29 cells; assay: Inhibition of the fibrotic process: αSMA staining in TGF-β1 treated LL29 fibroblasts from IPF patients; conditions: Homo sapiens, Fibroblast; for EC50: 96 h; for inhibition at 10 µM: read-out: percentage in parentheses after EC50 >10

| Structure (SMILES) | EC50 (DYRK1A kinase) [µM] | EC50 (GSK3β kinase) [µM] | EC50 [1] [µM] | EC50 [2] [µM] | EC50 [3] [µM] | EC50 [4] [µM] | EC50 [5] [µM] | EC50 (IL-6) [µM] | inhibition at 10 µM [4] [%] | inhibition at 10 µM (IL-6) [%] | EC50 [6] [µM] | inhibition at 10 µM [5] [%] | inhibition at 10 µM [6] [%] |
| --- | --- | --- | --- | --- | --- | --- | --- | --- | --- | --- | --- | --- | --- |
| Cn1cc(-c2ccc3nnc(NC(=O)C4CC4)cc3c2)cn1 [Compound 1815, N-(6-(1-Methyl-1H-pyrazol-4-yl)cinnolin-3-yl)cyclopropanecarboxamide] | > 10 | > 10 | > 10 | > 10 | – | > 10 | > 10 | > 10 | 15.8 | 7 | > 10 | 12.9 | 33.5 |
| CN1CCN(c2cccc(C(=O)Nc3cc4cc(-c5cnn(C)c5)ccc4nn3)c2)CC1 [Compound 1953, N-(6-(1-Methyl-1H-pyrazol-4-yl)cinnolin-3-yl)-3-(4-methylpiperazin-1-yl) benzamide] | 0.317 | 2.62 | > 10 | > 10 | 2.9 | > 10 | > 10 | > 10 | 7.8 | 12.8 | > 10 | 9.7 | 55.5 |
| Cn1cc(-c2cnc3cnc(NC(=O)c4ccc(OC5CCNCC5)cc4)cc3c2)cn1 [Compound 2864, N-(3-(1-Methyl-1H-pyrazol-4-yl)-1,7-naphthyridin-6-yl)-4-(piperidin-4-yloxy)benzamide] | 0.039 | > 10 | > 10 | 0.31 | – | 4.06 | > 10 | > 10 | – | 10 | > 10 | 47.3 | 7.3 |
| CN1CCC(Oc2ccc(C(=O)Nc3cc4cc(-c5cnn(C)c5)cnc4cn3)cc2)CC1 [Compound 2865, N-(3-(1-Methyl-1H-pyrazol-4-yl)-1,7-naphthyridin-6-yl)-4-((1-methylpiperidin-4-yl)oxy)benzamide] | 0.041 | > 10 | > 10 | 0.122 | 0.16 | 4.38 | 3.02 | 9.61 | – | – | 5.12 | – | – |
| Cn1cc(-c2cnc3cnc(NC(=O)c4ccnc(N5CCNCC5)c4)cc3c2)cn1 [Compound 2866, N-(3-(1-Methyl-1H-pyrazol-4-yl)-1,7-naphthyridin-6-yl)-2-(piperazin-1-yl) isonicotinamide] | 0.041 | > 10 | > 10 | 1.6 | – | 2.48 | 2.2 | > 10 | – | 0 | > 10 | – | 47.4 |
| CN1CCN(c2cc(C(=O)Nc3cc4cc(-c5cn(C)nn5)cnc4cn3)ccn2)CC1 [Compound 3098, N-(3-(1-Methyl-1H-1,2,3-triazol-4-yl)-1,7-naphthyridin-6-yl)-2-(4-methylpiperazin-1-yl)isonicotinamide] | 0.096 | > 10 | > 10 | 2 | – | > 10 | > 10 | > 10 | 14.4 | 4.7 | > 10 | 14.9 | 8.3 |
| Cn1cc(-c2cnc3cnc(NC(=O)c4ccnc(N5CCNCC5)c4)cc3c2)nn1 [Compound 3105, N-(3-(1-Methyl-1H-1,2,3-triazol-4-yl)-1,7-naphthyridin-6-yl)-2-(piperazin-1-yl)isonicotinamide] | 0.147 | > 10 | > 10 | 7.8 | – | 9.75 | 4.16 | > 10 | – | 8 | > 10 | – | 21.8 |

The next compounds have a lower EC50 (DYRK1A kinase) than those just listed; values first:

| EC50 (DYRK1A kinase) [µM] | EC50 (GSK3β kinase) [µM] | EC50 [1] [µM] | EC50 [2] [µM] | EC50 [3] [µM] | EC50 [4] [µM] | EC50 [5] [µM] | EC50 (IL-6) [µM] | Structure (SMILES) | inhibition at 10 µM [4] [%] | inhibition at 10 µM (IL-6) [%] | EC50 [6] [µM] | inhibition at 10 µM [5] [%] | inhibition at 10 µM [6] [%] |
| --- | --- | --- | --- | --- | --- | --- | --- | --- | --- | --- | --- | --- | --- |
| 0.036 | 0.2 | > 10 | 0.668 | 0.26 | > 10 | 5.21 | > 10 | C[C@H]1CCCN1CC(=O)Nc1cc2nc(-c3cnn(C)c3)ccc2cn1 [Compound 47, (S)—N-(2-(1-methyl-1H-pyrazol-4-yl)-1,6-naphthyridin-7-yl)-2-(2-methylpyrrolidin-1-yl)acetamide] | 35.2 | 0 | 7.2 | – | – |
| 0.036 | > 10 | > 10 | 0.046 | – | 4.05 | 9.16 | > 10 | CN1CCN(c2cc(C(=O)Nc3cc4cc(-c5cnn(C)c5)cnc4cn3)ccn2)CC1 [Compound 2867, N-(3-(1-methyl-1H-pyrazol-4-yl)-1,7-naphthyridin-6-yl)-2-(4-methylpiperazin-1-yl)isonicotinamide] | – | 5.2 | 5.38 | – | – |
| 0.012 | > 10 | – | 0.042 | 1 | 1.55 | 1.95 | > 10 | CC(C)n1cc(C(=O)Nc2cc3nc(-c4cncc(NC5CCN(C)CC5)n4)ccc3cn2)cn1 [Compound 4565, 1-Isopropyl-N-(2-(6-((1-methylpiperidin-4-yl)amino)pyrazin-2-yl)-1,6-naphthyridin-7-yl)-1H-pyrazole-4-carboxamide] | – | 10.2 | > 10 | – | 31 |
| 0.01 | 0.031 | 0.102 | 0.03 | 3.9 | 6.99 | 0.073 | > 10 | CC(C)CN1CCC(C(=O)Nc2cc3cc(-c4cnn(C)c4)ncc3cn2)CC1 [Compound 3643, 1-Isobutyl-N-(6-(1-methyl-1H-pyrazol-4-yl)-2,7-naphthyridin-3-yl) piperidine-4-carboxamide] | – | 9.8 | 2.5 | – | – |
| 0.006 | 0.027 | 1.5 | 0.112 | 1.4 | 6.92 | 0.593 | > 10 | Cn1cc(-c2cc3cc(NC(=O)C4CCNCC4)ncc3cn2)cn1 [Compound 3638, N-(6-(1-Methyl-1H-pyrazol-4-yl)-2,7-naphthyridin-3-yl)piperidine-4-carboxamide] | – | 6.3 | > 10 | – | 34.9 |

Reference: US10703748B2, “Diazanaphthalen-3-yl carboxamides and preparation and use thereof” (Samumed, LLC, priority 2017, dated 2020)
